Results: patent US20230210113A1, “FUNGICIDAL COMPOSITIONS” (SYNGENTA CROP PROTECTION AG, priority 2020, published 2023)

What was measured:
Botrytis cinerea = assay: Liquid culture test in well plates, Botrytis cinerea (gray mould), growth inhibition; assay type: cell-based; conditions: 72 hours, 24° C.
Method: (§1) Mycelia fragments or conidia suspensions of a fungus, prepared either freshly from liquid cultures of the fungus or from cryogenic storage, are directly mixed into nutrient broth. DMSO solutions of the test compound (max. 10 mg/mL) is diluted with 0.025% Tween20 by factor 50 and 10 µL of this solution is pipetted into a microtiter plate (96-well format). […] The test plates are incubated in the dark at 24° C. and 96% relative humidity (rh). The inhibition of fungal growth is determined photometrically and visually after 3 - 7 days, depending on the pathosystem, and percent antifungal activity relative to the untreated check is calculated.
Conidia of the fungus from cryogenic storage were directly mixed into nutrient broth (PDB potato dextrose broth). After placing a DMSO solution of the test compositions into a microtiter plate (96-well format), the nutrient broth containing the fungal spores was added.

Alternaria solani = assay: Liquid culture test in well plates, Alternaria solani (early blight of tomato/potato), growth inhibition; assay type: cell-based; conditions: 48 hours, 24° C.
Method: as §1
Conidia of the fungus from cryogenic storage were directly mixed into nutrient broth (PDB potato dextrose broth). After placing a DMSO solution of the test compositions into a microtiter plate (96-well format) the nutrient broth containing the fungal spores was added.

Compound	inhibition at 0.25 ppm (Botrytis cinerea; Botrytis cinerea, Folpet 0.25 ppm alone, read-out: (B) inhibition (%)) [%]	inhibition at 0.5 ppm (Botrytis cinerea; Botrytis cinerea, Folpet 0.50 ppm alone, read-out: (B) inhibition (%)) [%]	inhibition at 1 ppm (Botrytis cinerea; Botrytis cinerea, Folpet 1.00 ppm alone, read-out: (B) inhibition (%)) [%]	inhibition at 0.25 ppm (Alternaria solani; Alternaria solani, Folpet 0.25 ppm alone, read-out: (B) inhibition (%)) [%]	(A) inhibition (%) (Botrytis cinerea; Aureobasidin A 0.0012 ppm alone)	(A) inhibition (%) (Botrytis cinerea; Aureobasidin A 0.0025 ppm alone)	(A) inhibition (%) (Botrytis cinerea; Aureobasidin A 0.0050 ppm alone)	(A) inhibition (%) (Botrytis cinerea; Aureobasidin A 0.0100 ppm alone)	(A) inhibition (%) (Botrytis cinerea; Aureobasidin A 0.0200 ppm alone)	(A) inhibition (%) (Alternaria solani; Aureobasidin A 0.02 ppm alone)
O=C1c2ccccc2C(=O)N1SC(Cl)(Cl)Cl [Folpet, folpet, reference compound]	21	44	78	3						
Aureobasidin A					6	6	4	34	41	24
